Source: patent publication US8338339B2, “Process for inhibition of proteolytic activity during the ensiling of forages” (The United States of America as represented by the …, priority 2003, dated 2012)

Experiments:
Assay type in all cases: biochemical
[1] = system: proteolysis in leaf extracts of transgenic alfalfa expressing the red clover PPO1 gene; test: Proteolysis (amino acid release) in PPO-alfalfa leaf extracts / alfalfa extracts with PPO activity; details: for inhibition of proteolysis: 3 mM caffeic acid
Protocol: (§1) Clarified extracts of red clover leaves were made in 50 mM MES, pH 6.5 (crude extract in Table 1). Where indicated, extracts were desalted using a Sephadex G-25 spin column equilibrated with 50 mM MES, pH 6.5, to remove low molecular weight molecules (i.e. o-diphenols). Extract protein concentrations were adjusted to 2 mg/ml with buffer. Where indicated, the o-diphenol in the form of caffeic acid (CA) was added to a final concentration of 3 mM. Extracts were incubated at 37° C. At the indicated times, samples were removed, trichloroacetic acid (TCA) added to 5%, and release of free amino acids (a measure of proteolytic activity) into the TCA-soluble supernatant was determined by ninhydrin assay. Data are the average of three experiments using independent tissue samples ±standard error.
(§2) Proteolysis was measured in leaf extracts essentially as described in Experiment 1 above. The o-diphenol in the form of caffeic acid was added to 3 mM caffeic acid. Data are the average of three experiments using independent tissue samples ±standard error.
(§3) Proteolysis after a four hour incubation at 37° C. was measured essentially as described for Experiment 1 above in leaf extracts of either transgenic alfalfa expressing the red clover PPO1 gene (PPO-alfalfa) or control-alfalfa not expressing an exogenous PPO gene (control-alfalfa) using the o-diphenol in the form of caffeic acid at various concentrations up to 10 mM. Data are the average of three experiments using independent tissue samples ±standard error.
(§4) Proteolysis in the reaction mixtures following a four hour incubation at 37° C. was measured essentially as described above for reaction mixture with and without caffeic acid added to 3 mM (+CA and −CA, respectively). Data are the average of three experiments using independent tissue samples ±standard error.
(§5) Proteolysis after a four hour incubation at 37° C. was measured (as described in Example 1 above) of alfalfa for reaction mixtures containing either 250 mU/ml PPO activity (protein adjusted to 2 mg/ml with control alfalfa extract) or a control alfalfa extract (2 mg/ml protein). Various o-diphenols were present in the reaction mixtures at 3 mM, including caffeic acid (CA) hydrocaffeic acid (HCA), chlorogenic acid (CGA), catechol, and (−)-epicatichin.

[2] = system: proteolytic activity in red clover leaf extracts; test: Proteolysis (release of free amino acids, ninhydrin assay) in red clover leaf extracts; details: desalted red clover extract + 3 mM CA, 37° C.
Protocol: as §1, with “At the indicated times, samples were removed, trichloroacetic acid (TCA) added to 5%, and release of free amino acids (a measure of proteolytic activity) into the TCA-soluble supernatant was determined by ninhydrin assay.” left out

[3] = system: proteolysis in oat leaf extracts; test: Proteolysis (amino acid release) in oat leaf extracts; details: for Mean amino acid release: with 3 mM Caffeic Acid
Protocol: as §1
Proteolysis was measured in oat leaf extracts or oat leaf extracts with PPO activity added (125 mU/ml). The added PPO activity was from an extract of red clover PPO1-expressing alfalfa. […] Total protein was 1.75 mg/ml. In Oat+alfalfa extracts, oat protein was present at 1.4 mg/ml and alfalfa protein was present at 0.35 mg/ml. Caffeic acid was present at 3 mM. Results in Table 6 below are for the average of two experiments using independent tissue samples.

[4] = system: proteolysis in control-alfalfa leaf extracts (no PPO transgene); test: Proteolysis (amino acid release) in control-alfalfa leaf extracts
Protocol: as §1, §2, §3, §4, §5

[5] = system: polyphenol oxidase (PPO), red clover PPO1 gene product; test: PPO activity (caffeic acid oxidized per minute, TNB protocol); details: PPO1 expressed in transgenic alfalfa
Protocol: The o-diphenol compound is applied to forage at a rate ranging from about 5 to about 30 micromoles per gram of fresh weight forage and the oxidase is applied at a rate of about 0.1 to about 1 unit per gram of fresh weight forage. One unit is defined as one micromole of caffeic acid oxidized per minute by the following protocol.
The protocol used to determine activity is carried out at 25° C. The buffer is 20 mM TRIS-acetate pH 7.0. The caffeic acid is 100 mM in ethyl alcohol. […] The decrease in absorbance at 412 nm (TNB) from 2-5 minutes is used to determine PPO activity.
PPO activity present in reaction mixtures was varied from 0 to 500 mU/ml of extract by mixing extracts from PPO- and control-alfalfa (1 U=1 micromole caffeic acid oxidized/min; red clover and PPO-Alfalfa have 0.5-5 U activity/mg protein) to achieve a final protein concentration of 2 mg/ml. Proteolysis in the reaction mixtures following a four hour incubation at 37° C. was measured essentially as described above for reaction mixture with and without caffeic acid added to 3 mM (+CA and −CA, respectively). […]

[6] = PPO-Alfalfa, 250 mU/ml PPO activity, substrate 3 mM, 37° C.
[7] = Control-Alfalfa extract 2 mg/ml protein, substrate 3 mM, 37° C.

`O=C(O)/C=C/c1ccc(O)c(O)c1` [CA, caffeic acid] was tested, and the “Mean four hour Amino Acid Release” value ([1]; 3 mM Caffeic Acid, PPO 16 mU/ml, protein 2 mg/ml) was 0.36 ± 0.03 µmol/mg, the “Mean four hour Amino Acid Release” value ([1]; 3 mM Caffeic Acid, PPO 32 mU/ml, protein 2 mg/ml) was 0.34 ± 0.05 µmol/mg and the “Mean four hour Amino Acid Release” value ([1]; 3 mM Caffeic Acid, PPO 62.5 mU/ml, protein 2 mg/ml) was 0.21 ± 0.02 µmol/mg. For the same compound, the “Mean four hour Amino Acid Release” value ([1]; 3 mM Caffeic Acid, PPO 125 mU/ml, protein 2 mg/ml) was 0.15 ± 0.03 µmol/mg, the “Mean four hour Amino Acid Release” value ([1]; 3 mM Caffeic Acid, PPO 250 mU/ml, protein 2 mg/ml) was 0.12 ± 0.01 µmol/mg and the “Mean four hour Amino Acid Release” value ([1]; 3 mM Caffeic Acid, PPO 500 mU/ml, protein 2 mg/ml) was 0.06 ± 0.03 µmol/mg. For the same compound, the inhibition of proteolysis ([1]; >125 mU/ml PPO activity, four hour) was > 80%, the inhibition of proteolysis ([1]; PPO activity 16 mU/ml, four hour) was > 50% and the “Mean four hour Amino Acid Release” value [1, 6] was 0.12 ± 0.03 µmol/mg. The “Mean four hour Amino Acid Release” value ([1]; PPO-Alfalfa, caffeic acid 0.5 mM, 37° C.) was 0.32 ± 0.03 µmol/mg, the “Mean four hour Amino Acid Release” value ([1]; PPO-Alfalfa, caffeic acid 1 mM, 37° C.) was 0.25 ± 0.03 µmol/mg and the “Mean four hour Amino Acid Release” value ([1]; PPO-Alfalfa, caffeic acid 2 mM, 37° C.) was 0.16 ± 0.03 µmol/mg. For the same compound, the “Mean four hour Amino Acid Release” value ([1]; PPO-Alfalfa, caffeic acid 3 mM, 37° C.) was 0.11 ± 0.02 µmol/mg, the “Mean four hour Amino Acid Release” value ([1]; PPO-Alfalfa, caffeic acid 4 mM, 37° C.) was 0.08 ± 0.02 µmol/mg and the “Mean four hour Amino Acid Release” value ([1]; PPO-Alfalfa, caffeic acid 5 mM, 37° C.) was 0.06 ± 0.01 µmol/mg. The “Mean four hour Amino Acid Release” value ([1]; PPO-Alfalfa, caffeic acid 10 mM, 37° C.) was 0.04 ± 0.02 µmol/mg, the “proteolytic inhibition compared to extracts to which no caffeic acid was added” value ([1]; caffeic acid 0.5 mM, PPO-alfalfa extract, four hour) was > 50% and the reduction in proteolysis ([1]; caffeic acid 3 mM added to PPO-alfalfa extract) was ~80%. For the same compound, the proteolytic inhibition ([1]; caffeic acid 3 mM, PPO-alfalfa extract, four hour) was > 80%, the “release of free amino acids” value ([2]; 0 h) was 0.00 ± 0.00 and the “release of free amino acids” value ([2]; 1 h) was 0.04 ± 0.01. The “release of free amino acids” value ([2]; 2 h) was 0.06 ± 0.01, the “release of free amino acids” value ([2]; 3 h) was 0.09 ± 0.01 and the “release of free amino acids” value ([2]; 4 h) was 0.11 ± 0.02. The proteolytic inhibition ([3]; 3 mM caffeic acid with exogenous PPO added (125 mU/ml) to oat extract) was ~50%, the “Mean amino acid release” value ([3]; Oat extract, time 0) was 0.00 ± 0.00 μmol/mg protein and the “Mean amino acid release” value ([3]; Oat extract, time 1) was 0.82 ± 0.18 μmol/mg protein. For the same compound, the “Mean amino acid release” value ([3]; Oat extract, time 2) was 1.39 ± 0.09 μmol/mg protein, the “Mean amino acid release” value ([3]; Oat extract, time 3) was 1.73 ± 0.15 μmol/mg protein and the “Mean amino acid release” value ([3]; Oat extract, time 4) was 1.79 ± 0.07 μmol/mg protein. For the same compound, the “Mean amino acid release” value ([3]; Oat/Control-Alf extract, time 0) was 0.00 ± 0.00 μmol/mg protein, the “Mean amino acid release” value ([3]; Oat/Control-Alf extract, time 1) was 0.75 ± 0.17 μmol/mg protein and the “Mean amino acid release” value ([3]; Oat/Control-Alf extract, time 2) was 1.42 ± 0.06 μmol/mg protein. For the same compound, the “Mean amino acid release” value ([3]; Oat/Control-Alf extract, time 3) was 1.73 ± 0.05 μmol/mg protein, the “Mean amino acid release” value ([3]; Oat/Control-Alf extract, time 4) was 1.91 ± 0.05 μmol/mg protein and the “Mean amino acid release” value ([3]; Oat/PPO-Alf (PPO 125 mU/ml), time 0) was 0.00 ± 0.00 μmol/mg protein. For the same compound, the “Mean amino acid release” value ([3]; Oat/PPO-Alf (PPO 125 mU/ml), time 1) was 0.60 ± 0.20 μmol/mg protein, the “Mean amino acid release” value ([3]; Oat/PPO-Alf (PPO 125 mU/ml), time 2) was 0.80 ± 0.13 μmol/mg protein and the “Mean amino acid release” value ([3]; Oat/PPO-Alf (PPO 125 mU/ml), time 3) was 0.82 ± 0.11 μmol/mg protein. The “Mean amino acid release” value ([3]; Oat/PPO-Alf (PPO 125 mU/ml), time 4) was 1.02 ± 0.22 μmol/mg protein, the “lower proteolysis than counterparts lacking caffeic acid” value ([3]; all oat reactions containing 3 mM CA) was 10-30% and the “Mean four hour Amino Acid Release” value ([4]; 3 mM Caffeic Acid, PPO 0 mU/ml (control-alfalfa extract), protein 2 mg/ml) was 0.79 ± 0.10 µmol/mg. The “Mean four hour Amino Acid Release” value [4, 7] was 0.75 ± 0.08 µmol/mg, the “Mean four hour Amino Acid Release” value ([4]; Control-Alfalfa, caffeic acid 0.5 mM, 37° C.) was 0.75 ± 0.09 µmol/mg and the “Mean four hour Amino Acid Release” value ([4]; Control-Alfalfa, caffeic acid 1 mM, 37° C.) was 0.69 ± 0.06 µmol/mg. For the same compound, the “Mean four hour Amino Acid Release” value ([4]; Control-Alfalfa, caffeic acid 2 mM, 37° C.) was 0.70 ± 0.07 µmol/mg, the “Mean four hour Amino Acid Release” value ([4]; Control-Alfalfa, caffeic acid 3 mM, 37° C.) was 0.66 ± 0.09 µmol/mg and the “Mean four hour Amino Acid Release” value ([4]; Control-Alfalfa, caffeic acid 4 mM, 37° C.) was 0.75 ± 0.07 µmol/mg. The “Mean four hour Amino Acid Release” value ([4]; Control-Alfalfa, caffeic acid 5 mM, 37° C.) was 0.75 ± 0.11 µmol/mg, the “Mean four hour Amino Acid Release” value ([4]; Control-Alfalfa, caffeic acid 10 mM, 37° C.) was 0.65 ± 0.06 µmol/mg and the effect on proteolysis ([4]; caffeic acid 3 mM added to control alfalfa extracts) was “no significant effect”. For the same compound, the effect on proteolysis ([4]; in the absence of PPO activity, caffeic acid up to 10 mM) was “little effect”.
With `O=C(/C=C/c1ccc(O)c(O)c1)O[C@@H]1C[C@](O)(C(=O)O)C[C@@H](O)[C@H]1O` [CGA, chlorogenic acid] the “Mean four hour Amino Acid Release” value [1, 6] was 0.26 ± 0.06 µmol/mg and the “Mean four hour Amino Acid Release” value [4, 7] was 0.80 ± 0.06 µmol/mg.
In the case of `Oc1ccccc1O` [Catechol, catechol], the “proteolytic inhibition (in words)” value ([1]; 3 mM, PPO present (250 mU/ml), four hour) is reported as “significant proteolytic inhibition”, the “Mean four hour Amino Acid Release” value [1, 6] is reported as 0.37 ± 0.05 µmol/mg and the “Mean four hour Amino Acid Release” value [4, 7] is reported as 0.71 ± 0.10 µmol/mg. The “substrate quality for the red clover PPO1 gene product” value [5] was “relatively poor substrate”.
With `Oc1cc(O)c2c(c1)O[C@H](c1ccc(O)c(O)c1)[C@H](O)C2` [Epicatichin, (−)-epicatichin] the “Mean four hour Amino Acid Release” value [1, 6] was 0.25 ± 0.08 µmol/mg and the “Mean four hour Amino Acid Release” value [4, 7] was 0.64 ± 0.08 µmol/mg.
With `O=C(O)CCc1ccc(O)c(O)c1` [HCA, hydrocaffeic acid] the “Mean four hour Amino Acid Release” value [1, 6] was 0.25 ± 0.07 µmol/mg and the “Mean four hour Amino Acid Release” value [4, 7] was 0.70 ± 0.07 µmol/mg.
